Earlier results on two compounds are cited in paper PMC12451523 (RSC Advances, 2025).

Structures are written as SMILES.

The target of this data set is fungal tyrosinase. To be noted: read-out: IC50 (μM) ± S.E., standard inhibitors, ref [50].

As to `O=c1cc(CO)occ1O` [Kojic acid], the IC50 – broadly, the concentration needed to halve the response being measured – is 30.3 ± 1 µM. For `O=C1O[C@H]([C@@H](O)CO)C(O)=C1O` [Ascorbic acid], the IC50 is 11.5 ± 1 µM.
